# Patent US9156790B2, “Anticancer P21-activated kinase inhibitors” (Ohio State Innovation Foundation, priority 2013, dated 2015)
# Columns and labels:
# Src(T341M) = Src(T341M) (Homo sapiens, UniProt P12931, T341M); assay: Kinase profiling panel: Src(T341M); type: biochemical; details: 5 μM compound; average of triplicate
# Procedure: (§1) To further probe the selectivity of the compounds 4 and 15, they were subjected for kinase profiling service for screening against a panel of other kinases selected based on the kinase tree at 5 μM concentration, at or above the IC50 for the two compounds versus PAK in both in vitro and cell-based assays. […] PAK1 was not available for testing using this system thus it was not possible to compare directly in this assay system.
# FGFR2 = FGFR2 (Homo sapiens, UniProt P21802); assay: Kinase profiling panel: FGFR2; type: biochemical; details: 5 μM compound; average of triplicate
# Sequence of FGFR2 (P21802 22-821, species assumed): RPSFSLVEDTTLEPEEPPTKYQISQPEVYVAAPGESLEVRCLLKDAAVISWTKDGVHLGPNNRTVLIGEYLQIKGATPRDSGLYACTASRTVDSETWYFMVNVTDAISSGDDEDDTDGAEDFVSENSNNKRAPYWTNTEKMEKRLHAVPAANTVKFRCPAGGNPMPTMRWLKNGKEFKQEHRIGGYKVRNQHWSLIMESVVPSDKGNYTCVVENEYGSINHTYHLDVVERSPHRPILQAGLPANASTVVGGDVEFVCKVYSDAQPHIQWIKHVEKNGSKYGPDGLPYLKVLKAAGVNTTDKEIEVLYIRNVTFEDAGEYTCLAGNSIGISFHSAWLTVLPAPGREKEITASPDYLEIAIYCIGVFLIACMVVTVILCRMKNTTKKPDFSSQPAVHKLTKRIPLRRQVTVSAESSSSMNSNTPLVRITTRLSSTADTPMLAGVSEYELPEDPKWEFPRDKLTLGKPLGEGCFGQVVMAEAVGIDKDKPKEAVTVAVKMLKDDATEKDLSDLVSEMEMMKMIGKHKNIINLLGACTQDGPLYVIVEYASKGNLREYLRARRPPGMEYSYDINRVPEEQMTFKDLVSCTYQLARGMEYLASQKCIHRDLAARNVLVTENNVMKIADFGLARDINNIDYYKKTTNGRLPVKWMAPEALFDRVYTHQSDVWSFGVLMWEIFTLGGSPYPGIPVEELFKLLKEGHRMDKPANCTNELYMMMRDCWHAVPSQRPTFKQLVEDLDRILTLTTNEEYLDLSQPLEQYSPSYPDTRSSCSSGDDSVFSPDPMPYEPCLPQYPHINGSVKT
# Procedure: as §1
# PAK4 = PAK4 (Homo sapiens, UniProt O96013); assay: Kinase profiling panel: PAK4; type: biochemical; details: 5 μM compound; average of triplicate
# Procedure: as §1
# BCPAP cells = assay: Boyden chamber migration assay, BCPAP; type: cell-based, Human; details: 2.5 μM and 5.0 μM, 12 hours, P<0.05 versus DMSO
# Procedure: Cells were grown in media containing 10% FBS. After 24 hours, the medium was aspirated, and media containing 1% FBS was added for 24 hours. The cells were trypsinized for 2 to 5 minutes, washed, and resuspended in media containing 1% FBS. The cell concentration was calculated by hemocytometer. Four hundred μl 1% FBS medium was added into 24-well plates, and a Boyden chamber (8 μm pore) was inserted into each well. Cells were added to each insert, and were allowed to attach in an incubator at 37° C. at 5% CO2 for 2 hours. The cells were then exposed to various concentrations of drugs or control diluent for 3 hours. The inserts were switched to a new well containing media containing 10% FBS, and the chamber was incubated for 12 or 24 hours depending on the migration rate of the cell line. The cells on and under the Boyden chamber membrane were fixed with 3.7% formaldehyde containing 0.05% crystal violet for 15 min after washing cells with PBS. The chambers were washed with distilled water. […] The Q-tips containing the scraped cells and the Boyden chamber containing the non-migrated cells were separately incubated in 80% methanol, shaken at 500 g for 30 minutes, and the extracted dye was measured at 570 nm. Migration was quantified as the ratio of the migrated cells over the total cells (non-migrated plus […]). […]
# PKCδ = PKCδ (Homo sapiens, UniProt Q05655); assay: Kinase profiling panel: PKCδ; type: biochemical; details: 5 μM compound; average of triplicate
# Sequence of PKCδ (Q05655 whole entry): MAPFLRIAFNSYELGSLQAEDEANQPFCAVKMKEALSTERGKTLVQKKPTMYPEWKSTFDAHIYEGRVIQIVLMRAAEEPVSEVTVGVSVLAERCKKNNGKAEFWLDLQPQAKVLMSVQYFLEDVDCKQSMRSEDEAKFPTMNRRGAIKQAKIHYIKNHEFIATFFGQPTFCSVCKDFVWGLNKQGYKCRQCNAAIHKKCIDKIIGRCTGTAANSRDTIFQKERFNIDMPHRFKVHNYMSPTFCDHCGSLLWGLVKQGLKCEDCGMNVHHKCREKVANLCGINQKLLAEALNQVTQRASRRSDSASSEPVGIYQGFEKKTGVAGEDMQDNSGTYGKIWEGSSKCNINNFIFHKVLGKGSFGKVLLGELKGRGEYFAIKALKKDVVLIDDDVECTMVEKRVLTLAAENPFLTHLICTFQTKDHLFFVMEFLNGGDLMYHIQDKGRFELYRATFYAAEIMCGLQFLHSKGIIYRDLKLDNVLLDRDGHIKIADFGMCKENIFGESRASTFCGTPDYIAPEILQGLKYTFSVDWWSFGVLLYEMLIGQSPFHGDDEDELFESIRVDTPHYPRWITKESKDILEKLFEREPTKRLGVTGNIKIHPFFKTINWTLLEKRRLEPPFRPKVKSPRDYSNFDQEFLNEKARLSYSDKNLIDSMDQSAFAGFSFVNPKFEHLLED
# Procedure: as §1
# EGFR = EGFR (Homo sapiens, UniProt P00533); assay: Kinase profiling panel: EGFR; type: biochemical; details: 5 μM compound; average of triplicate
# Sequence of EGFR (P00533 25-1210, species assumed): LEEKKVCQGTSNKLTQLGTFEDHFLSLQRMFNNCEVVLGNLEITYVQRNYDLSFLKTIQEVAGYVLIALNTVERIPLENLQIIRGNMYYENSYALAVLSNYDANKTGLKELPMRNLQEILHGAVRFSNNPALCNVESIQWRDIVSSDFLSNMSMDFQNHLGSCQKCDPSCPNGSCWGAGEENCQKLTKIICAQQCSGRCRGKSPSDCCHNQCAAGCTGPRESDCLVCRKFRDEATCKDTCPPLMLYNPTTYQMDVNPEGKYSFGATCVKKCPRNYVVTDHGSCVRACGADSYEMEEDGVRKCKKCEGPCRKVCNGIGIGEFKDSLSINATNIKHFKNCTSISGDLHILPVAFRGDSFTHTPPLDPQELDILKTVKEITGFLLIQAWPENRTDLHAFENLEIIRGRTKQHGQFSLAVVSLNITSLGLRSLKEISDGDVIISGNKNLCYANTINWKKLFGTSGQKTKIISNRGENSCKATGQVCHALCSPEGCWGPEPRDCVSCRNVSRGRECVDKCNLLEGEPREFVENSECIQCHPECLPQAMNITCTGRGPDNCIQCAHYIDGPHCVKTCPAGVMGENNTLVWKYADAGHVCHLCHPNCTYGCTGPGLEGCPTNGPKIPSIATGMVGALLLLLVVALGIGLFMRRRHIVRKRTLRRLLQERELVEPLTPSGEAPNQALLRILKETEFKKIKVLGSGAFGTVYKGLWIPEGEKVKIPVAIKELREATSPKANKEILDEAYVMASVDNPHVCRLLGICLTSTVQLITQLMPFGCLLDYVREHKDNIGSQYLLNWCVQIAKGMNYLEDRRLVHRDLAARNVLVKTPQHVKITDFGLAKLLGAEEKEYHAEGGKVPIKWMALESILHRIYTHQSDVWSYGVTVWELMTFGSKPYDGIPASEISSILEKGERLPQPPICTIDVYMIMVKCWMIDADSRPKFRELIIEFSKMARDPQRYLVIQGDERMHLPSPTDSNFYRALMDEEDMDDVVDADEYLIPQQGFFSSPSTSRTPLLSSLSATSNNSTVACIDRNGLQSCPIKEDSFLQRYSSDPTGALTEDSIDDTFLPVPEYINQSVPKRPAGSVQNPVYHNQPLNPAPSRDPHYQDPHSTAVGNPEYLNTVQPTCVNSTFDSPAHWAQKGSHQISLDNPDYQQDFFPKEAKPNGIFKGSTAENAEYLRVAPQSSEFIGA
# Procedure: as §1
# FTC133 cells = assay: MTT cell viability assay, FTC133; type: cell-based, Human; details: Homo sapiens, FTC-133, 72-hours of exposure, 1% FBS, mean±standard deviation (n=3), read-out: IC50 for reducing viability of FTC133 cells versus DMSO control
# Description: Human thyroid cancer BCPAP, TPC1, and FTC133 cell lines were the generous gifts of Drs. Rebecca Schweppe and Bryan Haugen (University of Colorado Denver) (Schweppe et al., The Journal of clinical endocrinology and metabolism 83:4331-4341 (2008)) with permission from the following originating laboratories: BCPAP—Dr. Fabien, Centre Hospitalier Lyon-Sud, France (Fabien et al., Cancer 73:2206-2212 (1994)); TPC1—Dr. Sato, Kanazawa University, Japan (Tanaka et al., Virology 161:62-411 (1987)); and FTC133—Dr. Goretzki, University of Leipzig, Germany (Goretzki et al., Recent Results Cancer Res 118:48-63 (1990)). The obtained cell lines were confirmed for identity by DNA fingerprinting. BCPAP was grown in RPMI 1640 medium (Life Technologies Co., Carlsbad, Calif.) while FTC133 and TPC1 were grown in DMEM (Life Technologies Co.), both supplemented with 10% fetal bovine serum (FBS) and NEAA unless as noted for experiments.
# The effect of OSU-03012 and its derivatives on cell viability was assessed by using the 3-(4,5-dimethylthiazol-2-yl)-2,5-diphenyl-2H-tetrazolium bromide (MTT) assay. Three replicates were performed in each individual experiment, and experiments were repeated at least three separate times. Cells were grown in 96-well plates for 24 hours and were exposed to various concentrations of drugs dissolved in DMSO (final concentration 0.1%) in RPMI 1640 or DMEM containing 1% FBS for 72 hours. 10 μL of 0.5 mg/ml MTT was added to each well and cells were incubated in CO2 at 37° C. for 2 hours. Supernatants were removed from the wells, the reduced MTT dye was solubilized in 100 μL of solution C (12 ml of 1N HCl in 300 mL of isopropanol), and absorbance at 570 nm was determined on a microplate reader.
# We assessed the ability of the compounds to reduce cell viability in vitro by MTT assay after 72 hours of continuous exposure. Results are shown in Table 1 and are depicted as the IC50 vs. simultaneously performed DMSO control.
# ^aThe reported IC50 values are concentrations at which BCPAP, FTC133 and TPC1 cell viability by MTT assays 50% of DMSO control after 72-hours of exposure. Data are presented as mean±standard deviation (n=3). PAK and PDK1 Selectivity In Vivo
# JAK2 = JAK2 (Homo sapiens, UniProt O60674); assay: Kinase profiling panel: JAK2; type: biochemical; details: 5 μM compound; average of triplicate
# Sequence of JAK2 (O60674 whole entry, species assumed): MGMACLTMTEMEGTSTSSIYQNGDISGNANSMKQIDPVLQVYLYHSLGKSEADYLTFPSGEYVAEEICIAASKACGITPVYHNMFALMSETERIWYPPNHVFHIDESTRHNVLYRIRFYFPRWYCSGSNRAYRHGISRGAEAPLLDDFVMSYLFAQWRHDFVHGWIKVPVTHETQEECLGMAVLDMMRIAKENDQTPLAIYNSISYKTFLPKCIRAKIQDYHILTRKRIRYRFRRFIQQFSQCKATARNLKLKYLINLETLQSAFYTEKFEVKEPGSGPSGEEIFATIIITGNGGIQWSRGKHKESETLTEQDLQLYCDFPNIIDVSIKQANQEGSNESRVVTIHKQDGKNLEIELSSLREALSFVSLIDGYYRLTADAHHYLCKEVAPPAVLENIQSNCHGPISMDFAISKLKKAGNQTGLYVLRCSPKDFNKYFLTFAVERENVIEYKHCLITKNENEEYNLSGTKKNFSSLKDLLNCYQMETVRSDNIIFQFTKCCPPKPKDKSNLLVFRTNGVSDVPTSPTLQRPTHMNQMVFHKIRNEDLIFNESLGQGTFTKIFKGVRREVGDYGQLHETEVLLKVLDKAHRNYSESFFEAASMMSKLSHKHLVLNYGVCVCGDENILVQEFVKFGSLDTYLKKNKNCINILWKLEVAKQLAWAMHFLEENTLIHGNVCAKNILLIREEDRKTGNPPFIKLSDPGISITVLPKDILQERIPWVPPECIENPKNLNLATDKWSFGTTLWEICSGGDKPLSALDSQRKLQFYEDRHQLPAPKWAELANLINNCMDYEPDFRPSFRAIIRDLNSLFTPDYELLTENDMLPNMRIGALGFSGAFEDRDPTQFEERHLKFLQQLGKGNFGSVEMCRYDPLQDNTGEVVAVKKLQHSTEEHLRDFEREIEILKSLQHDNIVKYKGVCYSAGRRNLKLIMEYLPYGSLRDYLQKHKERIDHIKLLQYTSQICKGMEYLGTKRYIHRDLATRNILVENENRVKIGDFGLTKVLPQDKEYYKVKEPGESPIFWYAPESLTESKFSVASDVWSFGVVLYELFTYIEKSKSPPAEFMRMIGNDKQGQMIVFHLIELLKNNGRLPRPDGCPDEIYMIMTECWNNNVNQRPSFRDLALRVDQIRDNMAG
# Procedure: as §1
# IGF-1R, activated = IGF-1R, activated (Homo sapiens, UniProt P08069); assay: Kinase profiling panel: IGF-1R, activated; type: biochemical; details: 5 μM compound; average of triplicate
# Sequence of IGF-1R, activated (P08069 31-1367): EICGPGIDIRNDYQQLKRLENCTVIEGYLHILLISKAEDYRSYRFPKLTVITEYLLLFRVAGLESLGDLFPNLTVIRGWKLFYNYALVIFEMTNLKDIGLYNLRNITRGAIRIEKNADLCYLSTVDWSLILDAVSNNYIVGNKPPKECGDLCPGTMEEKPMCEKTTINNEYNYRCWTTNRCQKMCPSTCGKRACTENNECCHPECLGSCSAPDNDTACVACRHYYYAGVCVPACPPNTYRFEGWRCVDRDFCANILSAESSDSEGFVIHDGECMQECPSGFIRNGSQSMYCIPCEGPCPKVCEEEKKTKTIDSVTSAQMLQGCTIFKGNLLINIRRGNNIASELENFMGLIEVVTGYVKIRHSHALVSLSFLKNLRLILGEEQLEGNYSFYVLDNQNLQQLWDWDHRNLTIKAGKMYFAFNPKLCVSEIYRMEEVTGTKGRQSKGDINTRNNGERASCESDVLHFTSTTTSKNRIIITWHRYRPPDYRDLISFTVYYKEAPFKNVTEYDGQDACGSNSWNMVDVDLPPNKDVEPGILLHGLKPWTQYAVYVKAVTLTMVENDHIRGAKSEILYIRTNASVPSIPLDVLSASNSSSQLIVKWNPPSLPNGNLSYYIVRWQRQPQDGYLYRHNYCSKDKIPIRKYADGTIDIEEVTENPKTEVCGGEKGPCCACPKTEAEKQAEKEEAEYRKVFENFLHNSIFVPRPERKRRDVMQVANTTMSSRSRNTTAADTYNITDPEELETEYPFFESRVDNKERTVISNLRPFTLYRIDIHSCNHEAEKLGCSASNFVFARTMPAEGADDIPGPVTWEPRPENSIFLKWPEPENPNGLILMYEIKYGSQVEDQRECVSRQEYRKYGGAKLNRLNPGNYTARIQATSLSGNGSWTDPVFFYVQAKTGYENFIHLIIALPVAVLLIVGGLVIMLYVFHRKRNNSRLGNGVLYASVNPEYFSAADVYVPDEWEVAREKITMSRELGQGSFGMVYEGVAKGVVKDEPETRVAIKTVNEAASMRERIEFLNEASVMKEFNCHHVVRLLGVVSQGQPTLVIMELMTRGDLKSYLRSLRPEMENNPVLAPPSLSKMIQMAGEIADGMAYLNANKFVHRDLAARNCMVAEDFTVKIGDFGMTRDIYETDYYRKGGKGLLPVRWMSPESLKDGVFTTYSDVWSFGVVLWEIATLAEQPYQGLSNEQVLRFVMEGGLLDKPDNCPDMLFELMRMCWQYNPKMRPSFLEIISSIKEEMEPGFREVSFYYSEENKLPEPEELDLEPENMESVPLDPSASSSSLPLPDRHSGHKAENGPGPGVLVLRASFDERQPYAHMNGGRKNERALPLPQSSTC
# Procedure: as §1
SMILES,"% activity vs. DMSO, Src(T341M) (Src(T341M)) [%]","% activity vs. DMSO, FGFR2 (FGFR2) [%]","% activity vs. DMSO, PAK4 (PAK4) [%]",Migration of BCPAP cells (BCPAP cells),"% activity vs. DMSO, PKCδ (PKCδ) [%]","% activity vs. DMSO, EGFR (EGFR) [%]",IC50 (FTC133 cells) [µM],"% activity vs. DMSO, JAK2 (JAK2) [%]","% activity vs. DMSO, IGF-1R, activated (IGF-1R, activated) [%]"
"NCCC(=O)Nc1ccc(-n2nc(C(F)(F)F)cc2-c2ccc3ccc4ccccc4c3c2)cc1 [Compound 4, 3-amino-N-(4-(5-(phenanthren-3-yl)-3-(trifluoromethyl)-1H-pyrazol-1-yl)phenyl)-propanamide]",105,92,101,inhibited migration,85,99,2.68 ± 2.08,152,97
"CC(C)NC(=O)c1cc(-c2ccc3ccc4ccccc4c3c2)n(-c2ccc(NC(=O)CN)cc2)n1 [Compound 15, 1-(4-(2-Aminoacetamido)phenyl)-N-isopropyl-5-(phenanthren-3-yl)-1H-pyrazole-3-carboxamide]",94,99,105,inhibited migration,110,100,3.37 ± 3.31,139,83
